How the values were obtained:
CEM cells [1] = assay: Annexin V-FITC/PI double-staining assay; type: cell-based, Human; conditions: 48 h; for cells in early apoptotic stage: Annexin positive; for cells in late apoptosis: Annexin/PI positive
Description: When cells undergo apoptosis, the integrity of the cell membrane is disrupted and phosphatidyl serine is exposed. Annexin V conjugated with FITC (apoptosis detection kit Santacruz, USA) has a selective affinity for phosphatidyl serine, based on which early and late apoptotic cells can be detected.
CEM cells (1 × 10^5 cells/ml) were treated with SS28 (5 and 10 μM) for 48 h. Cells were then harvested, washed with cold PBS and used for annexin-PI double-staining assay. Samples were resuspended in 1x binding buffer and incubated with Annexin V-FITC ([…]) and PI (0.05 mg/ml) and analyzed by flow cytometry (FACS calibur) using CellQuest pro software at an excitation with 488 nm laser and emission at 530 nm[55]. A minimum of 10,000 cells were acquired for each sample and illustrated as dot plot using Flowing software.

purified Tubulin = assay: Fluorescence binding study, double reciprocal plot; conditions: double reciprocal plot of fluorescence data, 1:1 binding, 30 °C, ± SEM; read-out: dissociation constant (Kd)
Description: Fluorescence spectral measurements were performed using Infinite M200 PRO microplate reader (Tecan Group Ltd., Switzerland). Briefly, SS28 (10 μM) was preincubated with increasing concentration of Tubulin (10, 25, 50, 100, 500 and 1000 nM) at 30 °C for 30 min. SS28 Tubulin complex was then scanned for the emission spectra from 345 to 545 nm at 315 nm excitation range. Resulting fluorescence intensity was plotted as the function of wavelength.
The dissociation constant (Kd) was determined using double reciprocal plot of change in fluorescence of SS28 (1/Δ(F0-F)) as a function of protein concentration by the method of Benesi and Hildebrand assuming a 1:1 binding of SS28 to Tubulin[48]. The spectral measurements were recorded three times and SEM was calculated.

[2] = Toxicity evaluation in normal mice (body weight, haematology, liver and kidney function); type: in vivo, BALB/c mice; conditions: 9 doses
Description: A total number of 10 BALB/c mice were used for the study, of which 5 animals served as normal control while, remaining 5 were treated with SS28 (15 mg/kg). Body weight of each animal was monitored throughout the experiment and average body weight was calculated on 21st day of treatment. In order to evaluate the effect of SS28 on physiological functions, blood was collected (21st day) and analysed as described earlier. The blood […] was analyzed using Neubauer’s chamber, and mean values of total red blood cells (RBCs) and white blood cells (WBCs) were determined. Serum was separated and kidney and liver function tests were performed for each animal, to determine alkaline phosphatase (ALP), […] (ALT), creatinine and urea levels as described earlier. Values are presented as mean ± SEM for both the controls and SS28 administered mice.

EAC cells tumor = assay: Antitumor activity in EAC solid tumor mouse model; type: in vivo; conditions: EAC tumor BALB/c mice, 15 mg/kg oral, nine doses every alternate day from 12th day, up to 28 days
Description: EAC cells were collected from donor mice (Swiss albino) and resuspended in sterile saline. A fixed number of viable cells were injected into the peritoneal cavity of each recipient mouse and were allowed to multiply. The cells were withdrawn, diluted in saline and injected (15 × 10^5 cells/animal) into the right thigh tissue of experimental animals for developing solid tumor.
A total number of 30 BALB/c mice were divided into three batches and were used for the present study. EAC cells (15 × 10^5 cells/animal) were injected into right thigh for the development of solid tumor as described previously. Among the 10 animals in each batch, 5 animals served as tumor control and the rest 5 animals received SS28 treatment (15 mg/kg b.wt.) by oral administration using gastric gavage. The dose used was selected based on preliminary studies. The first dose was given after 12th day of tumor development (9 doses over a period of 3 weeks). The diameter of developing tumor was measured using vernier calipers at alternative days for entire life span of tumor animal and tumor volume was calculated using the formula V = 0.5 × a × b^2, where “a” and “b” indicates the major and minor diameter, respectively.

A549 cells [3] = assay: Immunoblotting of cell cycle and apoptotic proteins; type: cell-based, human; conditions: A549, 5 μM, 24, 48 and 72 h
Description: (§1) Cell lysate was prepared after treating with SS28 (5 μM for 24, 48 and 72 h) from CEM and A549 cell lines. In brief, cells were harvested, washed with PBS, resuspended in lysis buffer (RIPA, 25 mM Tris (pH 7.6), 150 mM NaCl, 1% NP-40, 1% sodium deoxycholate and 0.1% SDS) containing protease inhibitors. The protein lysate was cleared by centrifugation (14,000 rpm, for 15 min). The protein concentration in the supernatant was determined using the Bradford’s assay.
(§2) For western blot analysis, ~40 μg proteins were resolved over 8–10% SDS–polyacrylamide gel[60][61][62]. Following gel electrophoresis, proteins were transferred to PVDF membrane (Millipore, USAQ9). The primary antibodies used were against Caspase 3, Caspase 9, p73, p53, KU70, KU80, Cyclin B1, CDK6, PARP1 and Actin (Santa Cruz Biotechnology, USA). The membrane was incubated with appropriate HRP-conjugated secondary antibody (2 h at 4° C). The blots were developed using chemiluminescent solution (Immobilon^TM western, Millipore) and scanned by gel documentation system (LAS 3000, FUJI, Japan). Blots were stripped subsequently as per standard protocols and reprobed with anti β-Actin antibody.

A549 cells [4] = assay: Immunofluorescence microscopy of spindle microtubule organisation; type: cell-based, human; conditions: 24 h
Description: Immunofluorescence microscopy was performed as previously described. A549 cells were grown on coverslips coated with gelatin (0.1%). […] After 24 h of the treatment nonspecific antibody binding sites were blocked using FBS following which cells were incubated with antitubulin antibody (1:500) at RT. Coverslips were washed in PBS, incubated in biotinylated antimouse secondary antibody (1:500; RT for 1 h) followed by Streptavidin-FITC (1:200). Finally, cells were mounted with DABCO and images were captured using Zeiss Fluorescence microscope and analyzed using Axio vision software. Colchicine treated cells were used as a positive control.

CEM cells [5] = assay: Immunoblotting of cell cycle and apoptotic proteins; type: cell-based, Human; conditions: 5 μM, 24, 48 and 72 h
Description: as §1, §2

[6] = normal BALB/c mice, 15 mg/kg, 21st day, mean ± SEM

COc1cc(/C=C/c2ccc(C)cc2)cc(OC)c1OC [SS28, (E)-1,2,3-trimethoxy-5-(4-methylstyryl)benzene]
cells in early apoptotic stage (CEM cells [1]; 5 μM): 28.2%
cells in late apoptosis (CEM cells [1]; 5 μM): 39.8%
cells in early apoptotic stage (CEM cells [1]; 10 μM): 32.9%
cells in late apoptosis (CEM cells [1]; 10 μM): 46.9%
necrosis (CEM cells [1]; 5 and 10 μM): did not observe any cells undergoing necrosis
Kd (purified Tubulin): 414 ± 110 nM
body weight ([2]; normal BALB/c mice, 15 mg/kg oral): no significant difference
number of RBCs and WBCs versus control ([2]; normal BALB/c mice, 15 mg/kg, 21st day): no significant difference
RBC [2, 6]: 6.43 ± 1.32 10^6 cells/mm^3
WBC [2, 6]: 3.5 ± 0.99 10^3 cells/mm^3
ALP level versus control ([2]; serum, 15 mg/kg, 21st day): slightly higher
level of ALT versus control ([2]; serum, 15 mg/kg, 21st day): no significant difference
levels of creatinine and urea in the serum versus control ([2]; serum, 15 mg/kg, 21st day): no significant difference
tumor progression (tumor volume) (EAC cells tumor): no further tumor progression
Caspase 3 (A549 cells [3]): showed activation
Caspase 9 (A549 cells [3]): increase in the cleaved Caspase 9 level
expression level of Cdk6 (A549 cells [3]): increased at 24 h followed by a decrease at 48 and 72 h
expression levels of p73 (A549 cells [3]): remained same
level of Cyclin B1 (A549 cells [3]): maintained throughout the time period, but with a moderate decrease at 48 h
cells displaying abnormal spindle organisation (A549 cells [4]; A549, 5 μM): ~ 38%
Metaphase arrest (number of cells) (A549 cells [4]; A549, 5 μM, total number of cells 78): 30
Metaphase arrest (number of cells) (A549 cells [4]; A549, 10 μM, total number of cells 387): 123
Caspase 3 (CEM cells [5]): showed activation
Caspase 9 (CEM cells [5]): increase in the cleaved Caspase 9 level
PARP1 (CEM cells [5]): activation of PARP1
expression level of Cdk6 (CEM cells [5]): increased at 24 h followed by a decrease at 48 and 72 h
expression levels of p53 (CEM cells [5]): upregulation of p53 at 24 h time point followed by a decrease in the later time points
level of Cyclin B1 (CEM cells [5]): increased at 48 h time point in CEM cells followed by a decrease at 72 h

— PMC5066224, “A Novel Resveratrol Based Tubulin Inhibitor Induces Mitotic Arrest and Activates Apoptosis in Cancer Cells” (Scientific Reports, 2016)
